Read-outs that look alike come from different tables or passages of the source.
Experiments:
[1] = test system: 3D7 Plasmodium falciparum strain; settings: artemisinin reference value; read-out: 3D7 Sensitive Strain IC50; cited from earlier work
[2] = Heme-binding assay by mass spectrometry with collision-induced dissociation of adducts (DV50); settings: energy dissociating 50% of the heme-Fe(III) adduct, NA = no adduct
Experimental: Hemin (iron-containing porphyrin with chlorine counterion) and the crude ethanolic extract were dissolved in DMSO at 5 mM and 10 mg/mL, respectively. Pure compounds were dissolved in DMSO at the concentration of 10 mM, except for Tween 20, which was dissolved in water at 10 µM. Citric-buffer-saturated octanol (CBSO) was prepared by mixing 5 mL of citric acid, 50 mM and pH 5.2, and 15 mL of N-octanol (anhydrous, ≥99%) and letting it settle at 23 °C for 30 min. The upper phase of the CBSO biphasic system was used. Autosampler 1260 infinity G1367E 1260 Hip ALS (Agilent Technologies, Santa Clara, CA, USA) was used to perform the automatic mixing of aliquots in 384-well plates. The incubation mixture was as follows: Compound 5 µL + heme 5 µL + Tween 5 µL + organic phase of CBSO 85 µL. Samples were injected in infusion mode (direct injection) in a 6530 Accurate-Mass QToF LC–MS instrument (Agilent Technologies) with the following settings: Positive ESI mode and 2 GHz acquisition rate. […] In positive-ion mode, purine ion C5H4N4 [M + H]^+ (m/z 121.050873) and the hexakis (1H,1H,3H-tetrafluoropropoxy)-phosphazene ion C18H18F24N3O6P3 [M+H]^+ (m/z 922.009798) were used as internal lock masses. Full scans were acquired at a resolution of ca 11 000 (at m/z 922).
To obtain heme-Fe(II) from hemin (heme-Fe(III)), glutathione (50 mM in water) was mixed with hemin (5 mM in DMSO) in a ratio of 1:1 and left to incubate for 40 min. This solution was used as the heme solution, as described above.
Dissociation in the collision chamber was caused by increasing collision energies from 0 to 56 eV. The MS–MS targeted mode, an isolation width of m/z 1.3, and the flow injection analysis mode (FIA) were applied. MS–MS parameters were the same as described above. The results were plotted, and a sigmoidal regression curve allowed us to calculate the energy necessary to dissociate 50% of adducts (DV50) using GraphPrism software version 5.00 (San Diego, CA, USA) or a Python script.
Ethanolic extract and hemin (heme-Fe(III)) were mixed and injected using infusion mode for the MS–MS experiment. Three collision energies were used: 30, 50, and 70 eV. The ten most intense ions (top 10) per cycle were selected. MS–MS acquisition parameters were as follows: m/z range of 100–1700, default charge of 1, a minimum intensity of 5000 counts, 3 spectra/s, and isolation width of 1.3 m/z. A list of compounds was generated by the “find by auto MSMS” algorithm of MassHunter software (Qualitative Analysis B.07.00, Agilent Technologies). The “extract average MS–MS spectrum” mode was used to summarize and average the results of the 3 collision energies. Exportation of generated spectra was performed in MGF format using the option “entire data file”. The information generated was uploaded onto the online platform GNPS (global natural product social network). Parameters used for the algorithm were as follows: Precursor ion mass tolerance = 1; fragment ion mass tolerance = 0.3; min pairs cos = 0.7; minimum matched fragment ions = 3; and minimum cluster size = 1. From the data, a network was calculated measuring correlations and was plotted using Cytoscape 3.5.1. […] An alkaloid extract from Cinchona pubescens Vahl (Rubiaceae) and eight antiplasmodial drugs (chloroquine, quinine, amodiaquine, ketoconazole, miconazole, mefloquine, praziquantel, and sulfadoxine) were used as examples of the visualization of adduct fragments by MN. The methodology and conditions were the same as described above.

[3] = test system: 3D7 Plasmodium falciparum strain; test: In vitro antiplasmodial activity on Plasmodium falciparum (SYBR Green I); type: cell-based; settings: for IC50: chloroquine-sensitive 3D7 strain, 44 h incubation
Experimental: The strain was maintained in O+ human erythrocytes in an albumin-supplemented RPMI medium under continuous culture using the candle-jar method. […] After 44 h of incubation at 37 °C, the plates were subjected to 3 freeze-thaw cycles to achieve complete hemolysis. The parasite lysis suspension was diluted 1:5 in lysis buffer. In vitro susceptibility is expressed as the concentration inhibiting 50% of the parasite's growth (IC50). Parasite growth was determined using SYBR® Green I, a dye with strong fluorescence enhancement upon contact with DNA. Incorporation of the SYBR® Green I (Fisher Scientific, Illkirch-Graffenstaden, France) in parasite DNA was measured using the Master […]® (Eppendorf, Montesson, France) according to the following program to increase the SYBR® Green I incorporation: 90 °C (1 min) and a decrease to 10 °C over 5 min followed by fluorescence reading. Untreated infected and uninfected erythrocytes were used as controls and chloroquine diphosphate (Sigma, Lezennes, France) was used as a reference drug. IC50 was calculated by IC-estimator online software (www.antimalarial-icestimator.net, accessed on 18 January 2018).

[4] = Cytotoxicity, Alamar Blue; type: cell-based, human; settings: human, 72 h treatment
Experimental: (§1) Cells were seeded in 96-well plates (20,000 cells/mL) and incubated for 24 h, then treated with the drug for 72 h. […] Fluorescent viable cells were monitored after 5 h of incubation at 37 °C at a wavelength of 530 nm for excitation and 590 nm for emission in an FL600 luminescence spectrometer (Biotek, Colmar, France).

[5] = test system: AB943 primary human dermal fibroblast cell line; test: Cytotoxicity, Alamar Blue; type: cell-based; settings: for Selectivity Index CC50/IC50: CC50 on AB943 fibroblasts / IC50 on 3D7
Experimental: as §1

Trypanosoma brucei = test system: Trypanosoma brucei; design: method as in PMID 28000515; settings: read-out: IC50 against Trypanosoma brucei; cited from earlier work
[6] = AB943 primary human dermal fibroblast cells

Compound	DV50 [2]	IC50 ([3]; Plasmodium falciparum)	CC50 at 72 h [4, 6]	Selectivity Index CC50/IC50 [5]	other results
C[C@@H]1CC[C@H]2[C@@H](C)C(=O)O[C@@H]3O[C@@]4(C)CC[C@@H]1[C@]32OO4 [ART, Artemisinin]					IC50 [1]: 0.004 µM
CCN(CC)CCCC(C)Nc1ccnc2cc(Cl)ccc12 (stereo not drawn) [CQ, Chloroquine, reference compound]	14.27 eV				DV50 ([2]; listed as chloroquine): above 14 eV
COc1cc(OC)c(C(=O)/C=C/c2ccccc2)c(O)c1C [Compound 1, aurentiacin]	5.15 eV	2.25 µM	68.5 µM	30.4	
COc1cc(O)c(C)c(O)c1C(=O)/C=C/c1ccccc1 [Compound 2, 2′, 4′-dihydroxy-6′-methoxy-3′-methylchalcone]	5.93 eV	51 µM	> 100 µM	1.9	
COc1cc(O)cc(O)c1C(=O)/C=C/c1ccccc1 [Compound 3, cardamomin]	5.60 eV	5.5 µM		10.5	CC50 at 72 h ([4]; read-out: AB943 Primary Human Fibroblast CC50): 58 µM; IC50 (Trypanosoma brucei): 1.8 µM
COc1cc2c(c(O)c1C)C(=O)CC(c1ccccc1)O2 (stereo not drawn) [Compound 4, strobopinin 7-methyl ether]		60 µM	> 100 µM		
COc1c(C)c(O)c2c(c1C)OC(c1ccccc1)CC2=O (stereo not drawn) [Compound 5, 5-hydroxy-7-methoxy-6,8-dimethyl flavanone]		33.2 µM	23 µM	<1	
Cc1c(O)c(C)c2c(c1O)C(=O)CC(c1ccccc1)O2 (stereo not drawn) [Compound 6, desmethoxymatteucinol]		71 µM	> 100 µM	1.4	
COc1cc(OC)c2c(c1C)OC(c1ccccc1)CC2=O (stereo not drawn) [Compound 9, dimethyl cryptostrobin]	7.68 eV	85 µM	> 100 µM	1.2	
COC(=O)C1=CC(O)C(O)(C(=O)/C=C/c2ccccc2)C1 (stereo not drawn) [Compound 10]		> 100 µM	> 100 µM	1	
COc1ccc(CCNC(=O)c2ccccc2)cc1 [Compound 11, N-Benzoyltyrarnine methyl ether]	9.45 eV	> 100 µM	> 100 µM	1	antiplasmodial activity (in words) ([3]; 3D7 strain): no antiplasmodial activity
O=C1C=Cc2ccccc21 [Compound 12, 1H-inden-1-one]		> 100 µM	> 100 µM	1	
alpinetin [Compound 7]	8.40 eV				IC50 [3]: 72 µM; CC50 [5]: > 100 µM
pinocembrin [Compound 8]	8.68 eV				IC50 [3]: 78 µM; CC50 ([5]; 72 h treatment, read-out: AB943 Primary Human Fibroblast CC50): > 100 µM

Source: publication PMC9656727, “Biodereplication of Antiplasmodial Extracts: Application of the Amazonian Medicinal Plant Piper coruscans Kunth” (Molecules, 2022)
